Experiments:
rat mGlu 5a receptor = target: T1, rat mGlu 5a receptor (Rattus norvegicus, UniProt P31424); assay: [Ca2+]i measurement (FLIPR) on mGlu 5a transfected EBNA cells, antagonist mode; assay type: cell-based; conditions: rat mGlu 5a transiently transfected EBNA cells, Fluo 3-AM, tested against 10 μM glutamate as agonist
T1 construct: expressed in transfected cells; host or cells: EBNA cells (transient transfection)
Experimental: The pharmacological activity of all of the example compounds was tested using the following method: • cDNA encoding rat mGlu 5a receptor was transiently transfected into EBNA cells using a procedure described by E.-J. Schlaeger and K. Christensen (Transient gene expression in mammalian cells grown in serum-free suspension culture; Cytotechnology, 30: 71-83,1999). [Ca^2+]i measurements were performed on mGlu 5a transfected EBNA cells after incubation of the cells with Fluo 3-AM (obtainable by FLUKA, 0.5 μM final concentration) for 1 hour at 37° C. followed by 4 washes with assay buffer (DMEM supplemented with Hank's salt and 20 mM HEPES. [Ca^2+]i measurements were done using a fluorometric imaging plate reader (FLIPR, Molecular Devices Corporation, La Jolla, Calif., USA). When compounds were evaluated as antagonists they were tested against 10 μM glutamate as agonist.
The inhibition (antagonists) curves were fitted with a four parameter logistic equation giving IC50, and Hill coefficient using the iterative non linear curve fitting software Origin (Microcal Software Inc., Northampton, Mass., USA).

T1 sequence (P31424 21-1171 isoform P31424-2 limits assumed): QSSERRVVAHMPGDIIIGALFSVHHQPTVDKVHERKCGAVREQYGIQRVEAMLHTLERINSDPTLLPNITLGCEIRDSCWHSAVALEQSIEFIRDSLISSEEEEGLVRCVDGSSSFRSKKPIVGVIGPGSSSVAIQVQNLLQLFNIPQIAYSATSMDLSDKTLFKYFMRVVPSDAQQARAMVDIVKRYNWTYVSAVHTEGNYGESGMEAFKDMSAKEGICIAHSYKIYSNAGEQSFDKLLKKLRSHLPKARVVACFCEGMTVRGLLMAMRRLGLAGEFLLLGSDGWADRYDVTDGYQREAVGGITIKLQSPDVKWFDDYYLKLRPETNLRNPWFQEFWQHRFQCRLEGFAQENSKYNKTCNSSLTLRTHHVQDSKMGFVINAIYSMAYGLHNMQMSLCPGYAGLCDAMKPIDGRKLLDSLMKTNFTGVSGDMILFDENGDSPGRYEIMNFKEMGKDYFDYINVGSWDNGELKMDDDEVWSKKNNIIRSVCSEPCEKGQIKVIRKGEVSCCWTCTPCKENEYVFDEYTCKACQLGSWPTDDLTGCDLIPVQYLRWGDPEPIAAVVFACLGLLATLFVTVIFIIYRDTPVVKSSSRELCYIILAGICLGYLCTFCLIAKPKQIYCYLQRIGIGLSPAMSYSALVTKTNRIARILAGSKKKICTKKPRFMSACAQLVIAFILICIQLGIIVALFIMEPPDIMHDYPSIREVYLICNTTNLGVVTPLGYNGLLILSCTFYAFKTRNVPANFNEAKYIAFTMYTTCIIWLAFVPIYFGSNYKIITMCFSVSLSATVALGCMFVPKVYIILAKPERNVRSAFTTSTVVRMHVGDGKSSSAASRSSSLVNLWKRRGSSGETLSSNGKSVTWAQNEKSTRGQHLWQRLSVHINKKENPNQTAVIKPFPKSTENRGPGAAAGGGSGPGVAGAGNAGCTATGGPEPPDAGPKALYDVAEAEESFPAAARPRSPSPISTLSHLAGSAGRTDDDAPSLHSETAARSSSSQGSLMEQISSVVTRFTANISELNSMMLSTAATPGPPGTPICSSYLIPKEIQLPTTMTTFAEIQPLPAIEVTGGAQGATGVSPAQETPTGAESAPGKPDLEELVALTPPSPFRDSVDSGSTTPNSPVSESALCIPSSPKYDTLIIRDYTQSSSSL

IC50 (rat mGlu 5a receptor) [nM]	melting point [°C]	SMILES
250		CCOC(=O)c1c(C)nc(C#Cc2ccccc2)n1C [Example 1, 3,5-Dimethyl-2-phenylethynyl-3H-imidazole-4-carboxylic acid ethyl ester]
2400		CCOC(=O)c1[nH]c(C#Cc2ccccc2)nc1C [Example 2, 5-Methyl-2-phenylethynyl-3H-imidazole-4-carboxylic acid ethyl ester]
350		CCOC(=O)c1c(C)nc(C#Cc2cccc(OC)c2)n1C [Example 3, 2-(3-Methoxy-phenylethynyl)-3,5-dimethyl-3H-imidazole-4-carboxylic acid ethyl ester]
720		Cn1ccnc1C#Cc1ccccc1 [Example 4, 1-Methyl-2-phenylethynyl-1H-imidazole]
2110		O=[N+]([O-])c1cnc(C#Cc2ccccc2)n1CCO [Example 5, 2-(5-Nitro-2-phenylethynyl-imidazol-1-yl)-ethanol]
< 10000		CCOC(=O)c1nc(C#Cc2ccccc2)n(-c2ccccc2)c1C [Example 8, 5-Methyl-1-phenyl-2-phenylethynyl-1H-imidazole-4-carboxylic acid ethyl ester]
130		CCOC(=O)c1c(C)nc(C#Cc2cccc(C)c2)n1C [Example 9, 3,5-dimethyl-2-m-tolylethynyl-3H-imidazole-4-carboxylic acid ethyl ester]
2120		CCOC(=O)c1c(C)nc(C#Cc2cccc(NC(C)=O)c2)n1C [Example 10, 2-(3-Acetylamino-phenylethynyl)-3,5-dimethyl-3H-imidazole-4-carboxylic acid ethyl ester]
180		CCOC(=O)c1c(C)nc(C#Cc2cccc(-n3c(C)ccc3C)c2)n1C [Example 11]
11	137	Cc1noc(-c2c(C)nc(C#Cc3ccccc3)n2C)n1 [Example 12, 5-(3,5-Dimethyl-2-phenylethynyl-3H-imidazol-4-yl)-3-methyl-[1,2,4]oxadiazole]
	120	Cc1nc(C#Cc2ccccc2)n(C)c1-c1nc(C2CC2)no1 [Example 13, 3-Cyclopropyl-5-(3,5-dimethyl-2-phenylethynyl-3H-imidazol-4-yl)-[1,2,4]oxadiazole]
< 10000		CCOC(=O)c1c(C)nc(C#Cc2ccc(Cl)cc2)n1C [Example 14, 2-(4-Chloro-phenylethynyl)-3,5-dimethyl-3H-imidazole-4-carboxylic acid ethyl ester]
250		CCOC(=O)c1c(C)nc(C#Cc2ccc(F)cc2)n1C [Example 15, 2-(4-Fluoro-phenylethynyl)-3,5-dimethyl-3H-imidazole-4-carboxylic acid ethyl ester]
210		CCOC(=O)c1c(C)nc(C#Cc2ccc(-c3ccccc3)cc2)n1C [Example 16, 2-Biphenyl-4-ylethynyl-3,5-dimethyl-3H-imidazole-4-carboxylic acid ethyl ester]
90		CCOC(=O)c1c(C)nc(C#Cc2ccccc2F)n1C [Example 17, 2-(2-Fluoro-phenylethynyl)-3,5-dimethyl-3H-imidazole-4-carboxylic acid ethyl ester]
70		Cn1ccnc1C#Cc1ccccc1F [Example 18, 2-(2-Fluoro-phenylethynyl)-1-methyl-1H-imidazole]
1530		CCOC(=O)c1c(C)nc(C#Cc2ccc(N)cc2)n1C [Example 19, 2-(4-Amino-phenylethynyl)-3,5-dimethyl-3H-imidazole-4-carboxylic acid ethyl ester]
1100		Cn1ccnc1C#Cc1ccccc1Cl [Example 20, 2-(2-Chloro-phenylethynyl)-1-methyl-1H-imidazole]

IC50 (rat mGlu 5a receptor) [nM]	melting point [°C]	SMILES
520		CCOC(=O)Cn1c(C#Cc2ccccc2)nc(Cl)c1Cl [Example 21, (4,5-Dichloro-2-phenylethynyl-imidazol-1-yl)-acetic acid ethyl ester]
220		Cn1cncc1C#Cc1ccccc1 [Example 22, 1-Methyl-5-phenylethynyl-1H-imidazole]
580		COc1ccc2[nH]c(C#Cc3ccccc3)c(CCNC(C)=O)c2c1 [Example 23, N-[2-(5-Methoxy-2-phenylethynyl-1H-indol-3-yl)-ethyl]-acetamide]
150		C(#Cc1ncn2c1CSc1ncccc1-2)c1ccccc1 [Example 24, 3-Phenylethynyl-4H-5-thia-2,6,9b-triaza-cyclopenta[a]naphthalene]
230		Cc1nc(C#Cc2ccccc2)c([N+](=O)[O-])n1CC(O)CCl (stereo not drawn) [Example 26, 1-Chloro-3-(2-methyl-5-nitro-4-phenylethynyl-imidazol-1-yl)-propan-2-ol]
1790		Cn1cnc(C#Cc2ccccc2)c1C=O [Example 27, 3-Methyl-5-phenylethynyl-3H-imidazole-4-carbaldehyde]
3360		C(#Cc1c[nH]cn1)c1ccccc1 [Example 28, 4-Phenylethynyl-1H-imidazole]
500		Cn1cnc(C#Cc2ccccc2)c1 [Example 29, 1-Methyl-4-phenylethynyl-1H-imidazole]
20		Cc1nc(C#Cc2ccccc2)c([N+](=O)[O-])n1C [Example 30, 1,2-Dimethyl-5-nitro-4-phenylethynyl-1H-imidazole]
5000 to 10000		Cc1cc(C#Cc2ccccc2)n(C)n1 [Example 31, 1,3-Dimethyl-5-phenylethynyl-1H-pyrazole]
1820		CC(C)c1nc(C=Cc2ccccc2)n(C)c1C(C)C [Example 32, 4,5-Diisopropyl-1-methyl-2-styryl-1H-imidazole]
5000 to 10000		CC(C)c1nc(C=Cc2ccc(F)cc2)n(C)c1C(C)C [Example 33, 2-[2-(4-Fluoro-phenyl)-vinyl]-4,5-diisopropyl-1-methyl-1H-imidazole]
5000 to 10000		CC(C)c1nc(C=Cc2ccc(Cl)cc2)n(C)c1C(C)C [Example 34, 2-[2-(4-Chloro-phenyl)-vinyl]-4,5-diisopropyl-1-methyl-1H-imidazole]
5000 to 10000		COc1cc(C)c(C=Cc2nc(C(C)C)c(C(C)C)n2C)c(C)c1C [Example 36, 4,5-Diisopropyl-2-[2-(4-methoxy-2,3,6-trimethyl-phenyl)-vinyl]-1-methyl-1H-imidazole]
5000 to 10000		COc1ccc(C=Cc2nc(C(C)C)c(C(C)C)n2C)cc1 [Example 37, 4,5-diisopropyl-2-[2-(4-methoxy-phenyl)-vinyl]-1-methyl-1H-imidazole]
3250		Cc1ccc(C=Cc2nc(C(C)C)c(C(C)C)n2C)cc1 [Example 42, 4,5-Diisopropyl-1-methyl-2-(2-p-tolyl-vinyl)-1H-imidazole]
3060		Cn1cnc(Br)c1C=Cc1ccccc1 [Example 43, 4-Bromo-1-methyl-5-styryl-1H-imidazole]
8000		Cn1cncc1C=Cc1ccccc1 [Example 44, 1-Methyl-5-styryl-1H-imidazole]

SMILES	IC50 (rat mGlu 5a receptor) [nM]	melting point [°C]
C(#Cc1ncc[nH]1)c1ccccc1 [Example 6, 2-Phenylethynyl-1H-imidazole]	200	
CCCCOc1ccc(C=Cc2nc(C(C)C)c(C(C)C)n2C)cc1 [Example 35, 2-[2-(4-Butoxy-phenyl)-vinyl]-4,5-diisopropyl-1-methyl-1H-imidazole]	5000 to 10000	

Reference: patent US6972299B2, “Phenylethynyl and styryl derivatives of imidazole and fused ring heterocycles” (Hoffmann-La Roche Inc., priority 2000, dated 2005)
